The values that follow come from EP2592085B1, “Thiazolo[3,2-a][1,3]diazepine derivatives and pharmaceutical compositions containing the same as anticonvulsant agents and method for their preparation” (King Saud University, priority 2011, dated 2013).

The test system of data set [1] is Swiss albino mice. Nature of the data set: animal or person. The format is in vivo. To be noted: for ED50: Mus musculus, ip; for % Protection: Picrotoxin (8 mg/kg, IP) given 30 min after compound i.p., dose SGH-35 200 mg/kg (0.78 mmol/kg), SGH-40 100 mg/kg (0.38 mmol/kg), 4 animals; for PI: Protective index = TD50/ED50, Pic ED50. Here is the method:
(§1) Adult male Swiss albino mice (22-28 g), approximately 10-week old, were used to conduct the anticonvulsant evaluation. They were housed in cages and kept at a temperature of 20 ± 2°C and a relative humidity of 55 ± 5% with a light-dark cycle of 12 h and fed with standard diet and water ad libitum. Compounds of the formula 1 have been dissolved in dimethylsulfoxide and administered at dose levels of 25, 50, 100 and 200 mgl/kg intraperitoneal (i.p.). Sodium valproate was freshly dissolved in 0.9 % NaCl and used at dose level of 200 mg/kg (1.38 mmol/kg) i.p., 30 min after the test compounds as a positive control. A control group of mice was included and received intraperitoneal (i.p.) injections of the test compounds' vehicle. […] Picrotoxin (pic) was freshly dissolved in 1 ml 0.1N warmed HCl and the final volume was made up with 0.9 % NaCl. It has been used at dose level of 10 mg/kg i.p. and was given 30 min after the test compounds.
(§2) The anticonvulsant activity of compounds of the formula 1 in mice was measured using Pentylenetetrazole (PTZ) seizure threshold test (White, H.S. et al. In Antiepileptic Drugs, 4th ed.; L,evy, R.H. et al., Eds, Raven: New York, 1995, pp 99-121). The active compounds of the formula 1 were further tested against maximal electroshock seizure (MES), and picrotoxin induced clonic convulsions, to explore the involvement of GABA-ergic receptors in their anticonvulsant activity. The effect of compounds of the formula 1 on motor performance was studied by chimney test (Dauge, V. et al. Neuropsychopharmacology 2001, 25, 690-98). Median effective (ED50), and median sedative (TD50) were calculated.
Swiss albino mice (25 g body weight) were injected with 25, 50, 100 and 200 mg/kg of SGH-35 and SGH-40 (4 mice, i.p.). 30 min later, animals were injected sc with Pic (10 mg/kg) and observed for 30 min and the percentage protection against convulsive seizures for each compound was calculated (Table I).
(§3) In each of the chemical and the electrical methods described above, Swiss albino mice were divided into 4 groups (N = 4 animals). Each group was injected (i.p.) with one of the four selected doses that have proven to obtain a variable percentage of protection […] before the convulsants. The effective dose 50 (ED50) i.e. the dose that protected half of the animals was then calculated using the log-probit method (White, H.S. et al. In Antiepileptic Drugs, 4th ed.; Levy, R.H.et al., Eds, Raven: New York, 1995, pp 99-121).

For data set [2], the system named is Swiss albino mice. Nature of the data set: Maximal electroshock (MES) seizure test. The class given is in vivo. To be noted: for % Protection: MES applied 30 min after compound i.p., dose SGH-35 200 mg/kg (0.78 mmol/kg), SGH-40 100 mg/kg (0.38 mmol/kg), 4 animals; for ED50: Mus musculus, ip, MES, median effective dose, log-probit method; for PI: Protective index = TD50/ED50, MES ED50. As to the method: as §2
The maximal electroshock (MES) seizure is one of the electrical test used to evaluate anticonvulsant activity (White, H.S. et al. In Antiepileptic Drugs, 4th ed.; Levy, R.H. et al., Eds, Raven New York, 1995, pp 99-121). […] Swiss albino mice (25 g body weight) were injected with 25, 50, 100 and 200 mg/kg of SGH-35 and SGH-40 i.p. 30 min later, mice were restrained by hand and subjected to electric shock through their ears, and released immediately following electrical stimulation, to permit observation of the maximal seizure. The maximal seizure typically consists of a short period of initial tonic flexioni and a prolonged period of tonic extension (especially the hind limb). Protection was defined as complete absence of hind limb tonic extension (Table 1).
as §3

The nature of data set [3]: Minimal neurotoxicity (chimney test), motor performance. The class given is in vivo, mice. To be noted: Swiss albino, mouse, in vivo, ip; median sedative dose; chimney test at 15 and 25 min after i.p. administration. Here is the method: as §2
(§4) The effect of SGH-35 and SGH-40 on motor performance was studied by chimney test (Dauge, V. et al. Neuropsychopharmacology 2001, 25, 690-98). At 15 and 25 min after i.p. administration of compounds SGH-35 and SGH-40, the inability of mice to climb up backwards in a glass tube of 25 cm length and 3 cm inner diameter within 30 sec was recorded and taken as a measure of neurological deficits. Normal mice climb up in 5-10 sec. The dose that impaired the motor coordination in 50% of the animals tested was labeled as the median toxin dose 50 (TD50).

Data set [4] deals with Swiss albino mice. Described as above. The note with it: median sedative dose; chimney test at 15 and 25 min after i.p. administration. The class given is in vivo. Here is the method: as §2, §4
A further data set has as its system Albino Swiss mice. Nature of the data set: Acute toxicity determination (LD50). The class given is in vivo. To be noted: Therapeutic index = LD50/ED50 (values match the PTZ ED50). As to the method: (§5) The acute toxicity determination (LD50) for compounds of formula 1 was performed. Compounds were given intraperitoneally (i.p.) in doses ranging from 0.1-5 mmol/kg. […] All behavioral changes and death during the observation periods were recorded. The percentage of death at each dose level was then calculated, and the LD50 values were obtained (Ghosh, M., Fundamentals of Experimental Pharmacology, Scientific Book Agency, Calcutta. 1984, pp 153-158, 187-189). The protective index (PI) and therapeutic index (TI) of each compound were calculated.
(§6) Initially the approximate LD100 of each test compound was determined. Albino Swiss mice (25 g body weight) were then divided into 4 groups (6 mice each). Each group was then injected with one of 4 selected doses the highest being the LD100 dose. The animals were then observed closely for 4 hours and then occasionally for 72 hours. The percentage of death in each group was then calculated. The LD50 doses were then calculated using the Profit method (Ghosh; M., Fundamentals of Experimental Pharmacology, Scientific Book Agency, Calcutta. 1984, pp 153-158, 187-189).
(§7) The protective index (PI) - i.e. the value that indicates the margin of safety and tolerance of the test compound was calculated by the formula: Protective index (PI) = TD50/ED50. The Therapeutic Index was calculated by the formula: Therepeutic index (TI) = LD50/ED50 (Löscher, W. et al. Epilepsy Res. 1991, 9, 1-10).

Data set [5] is described as follows: Acute toxicity determination (LD50). The class given is in vivo. The note with it: Albino Swiss, mouse, in vivo, ip, mice observed for 72 hours. Here is the method:
as §5, §6, §7

Data set [6] relates to Swiss albino mice. Nature of the data set: animal or person. The note with it: for ED50: Mus musculus, ip, PTZ, median effective dose, log-probit method; for % Protection: PTZ 100 mg/kg i.p. given 30 min after compound i.p., dose SGH-35 200 mg/kg (0.78 mmol/kg), SGH-40 100 mg/kg (0.38 mmol/kg), 4 animals; for PI: male, Swiss albino, mouse, in vivo. The class given is in vivo. As to the method: as §1, §2
Pentylenetetrazole (PTZ) seizure threshold test is used to evaluate the potential anticonvulsant activity of compounds of the formula 1 (White, H.S. Et al. In Antiepileptic Drugs, 4th ed.; Levy, R.H. et al., Eds, Raven: New York, 1995, pp 99-121). Each compound was tested in 4 mice groups (Swiss albino mice, 25 g body weight) for each dose level (25, 50, 100 and 200 mg/kg) and was given i.p. 30 min later, animals were received PTZ (100 mg./kg, i.p.) and observed for 30 min. A single 5 seconds episode of clonic spasms was taken as a threshold seizure. SGH-35 and SGH-40 produced 100% protection against PTZ-induced seizures, Table 1. Table 1: ED50, TD50, PI, LD50 and TI for SGH-35 and SGH-40.
as §3

Turning to `CCOC(=O)C1=C(C)N2CCCC(=O)N=C2S1` [SGH-35, Ethyl 3-methyl-8-oxo-5,6,7,8-tetrahydro-thiarolo[3,2-a][1,3]diazepinie-2-carboxylate], the ED50 came to 148 ± 11.1 mg/kg with Swiss albino mice [1], 90 ± 5.7 mg/kg in the data set on Swiss albino mice [2] and 127 ± 9.3 mg/kg in the data set on Swiss albino mice [6]. The “% Protection” value with Swiss albino mice [1], in the data set with Swiss albino mice [2] and in the data set with Swiss albino mice [6] was 100% throughout. For the same compound, the results for the PI with Swiss albino mice [1], in the data set on Swiss albino mice [2] and in the data set with Swiss albino mice [6] were 1.35, 2.22 and 1.57, respectively. Moreover, the TD50 (in data set [3]; in the data set on Swiss albino mice [4]) was 200 ± 12.3 mg/kg in each case. Besides, the TI in the data set with Albino Swiss mice is given as 5.28. For the same compound, in data set [5], the LD50 at 72 h was found to be 670 mg/kg.
For `CC1=C(Br)SC2=NC(=O)CCCN21` [SGH-40, 2-Bromo-3-methyl-6,7-dihydro-thiazolo[3,2-a][1,3]diazepin-8(5H)-one], the ED50 in the data set on Swiss albino mice [1] is 129 ± 6.1 mg/kg; in the data set on Swiss albino mice [2], 78 ± 4.1 mg/kg; in the data set on Swiss albino mice [6], 112 ± 3.9 mg/kg. In addition, the “% Protection” value in the data set on Swiss albino mice [1], in the data set with Swiss albino mice [2] and in the data set with Swiss albino mice [6] was 100% in each case. The PI in the data set on Swiss albino mice [1] was found to be 1.31; in the data set on Swiss albino mice [2], 2.17; in the data set on Swiss albino mice [6] it was 1.51. Besides, the TD50 (in data set [3]; in the data set on Swiss albino mice [4]) was 170 ± 6.9 mg/kg throughout. Besides, the TI in the data set on Albino Swiss mice is given as 5.71. In data set [5], this compound showed a 50% lethal dose (LD50) at 72 h of 640 mg/kg.
